CN1CCOC(c2ccccc2)c2ccccc2C1.Cl (stereo not drawn)
solubility (mole fraction)
Details	in acetone	in ethanol	in isobutanol	in isopropanol	in methanol	in n-butanol	in n-propanol	in water
273.15 K	7.2e-05	0.00136	0.000415	0.000136	0.00515	0.000205	0.000291	0.000951
278.15 K	8.7e-05	0.00163	0.000524	0.000167	0.00566	0.000245	0.000328	0.00106
283.15 K	0.000107	0.00198	0.000635	0.000206	0.00632	0.000287	0.000387	0.00124
288.15 K	0.000128	0.00247	0.000797	0.000251	0.00692	0.000369	0.000495	0.00144
293.15 K	0.000151	0.0029	0.000955	0.00032	0.00764	0.000463	0.000652	0.00167
298.15 K	0.000182	0.00337	0.00116	0.000407	0.00856	0.000605	0.000836	0.00199
303.15 K	0.000215	0.00402	0.00144	0.000494	0.00951	0.000776	0.00106	0.00234
308.15 K	0.000265	0.00473	0.00175	0.000608	0.0105	0.000986	0.00134	0.00273
313.15 K	0.000312	0.00559	0.00214	0.000752	0.0115	0.00125	0.0017	0.00317
318.15 K	0.000373	0.00654	0.0026	0.000935	0.0128	0.00159	0.00213	0.00369
323.15 K	0.000445	0.00795	0.00321	0.00114	0.0143	0.00198	0.00267	0.00426

— BigSolDB 2.1
